Measurements taken from patent US20100222390A1, “Methods and Compositions for the Intravenous Administration of Compounds Related to Proton Pump Inhibitors” (Alevium Pharmaceuticals, Inc., priority 2004, published 2010).

Test: Stability profile at 25° C. in buffered aqueous solutions
Format: physicochemical
Conditions: for Degradation Rate Constant (k): 25° C.
From the text: While not intending to be bound in any way by theory, the base-catalyzed degradation is unexpected because the commercial proton pump inhibitors are stabilized in aqueous solutions by adjusting the solution to high pH. […] This should allow bolus injection of the compounds disclosed herein as opposed to the slow infusion of the drug currently in practice because the present compositions will not have the irritation associated with the high pH traditionally used with proton pump inhibitors. This should also allow greater flexibility in co-administering these compounds with drugs which are unstable or otherwise incompatible with high pH.

shelf-life (in a neutral solution): over forty hours | Degradation Rate Constant (k) (pH 1, 0.1 M HCl): 0.194 h⁻¹ | Degradation Rate Constant (k) (pH 3, Citric Acid (0.1 M)/Na2HPO4 (0.2 M)): 0.009 h⁻¹ | Degradation Rate Constant (k) (pH 5, Citric Acid (0.1 M)/Na2HPO4 (0.2 M)): 0.008 h⁻¹ | Degradation Rate Constant (k) (pH 7, sodium phosphate (0.1-0.2 M)): 0.002 h⁻¹ | Degradation Rate Constant (k) (pH 7.4, sodium phosphate (0.1-0.2 M)): 0.002 h⁻¹ | Degradation Rate Constant (k) (pH 9, sodium phosphate (0.1-0.2 M)): 0.03 h⁻¹ | Degradation Rate Constant (k) (pH 10, sodium phosphate (0.1-0.2 M)): 0.298 h⁻¹
SMILES: COc1ccc2c(c1)nc([S+]([O-])Cc1ncc(C)c(OC)c1C)n2S(=O)(=O)c1ccc(OCC(=O)O)cc1 (centres unmarked) [Compound 1]
